# Test results: the supplement of paper PMC10307832
# What was measured:
# Test in all cases: relative viability (nuclei count vs DMSO), 5 days (fraction); higher = more cells survive
# Afatinib + Linsitinib = compound: CN(C)C/C=C/C(=O)Nc1cc2c(Nc3ccc(F)c(Cl)c3)ncnc2cc1O[C@H]1CCOC1 [Afatinib] + C[C@]1(O)C[C@@H](c2nc(-c3ccc4ccc(-c5ccccc5)nc4c3)c3c(N)nccn32)C1 [Linsitinib] (partner 1 µM)
# Procedure, shortened: (§1)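 The day after seeding in 1536-well plates, lung cancer cell lines were treated by pin tool with a single drug, or with a fixed anchor-drug dose together with five library-drug doses (not always all listed) in √10 steps. After 5 days, a combined fix-and-stain solution (final 0.05% Triton X-100, 1% formaldehyde, 1 ug/ml Hoechst) was added. Nuclei counted on 4× images gave relative viability as treated counts over vehicle counts, reported as the median of duplicate plates.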
# Afatinib + Pemetrexed = compound: CN(C)C/C=C/C(=O)Nc1cc2c(Nc3ccc(F)c(Cl)c3)ncnc2cc1O[C@H]1CCOC1 [Afatinib] + Nc1nc2[nH]cc(CCc3ccc(C(=O)N[C@@H](CCC(=O)O)C(=O)O)cc3)c2c(=O)[nH]1 [Pemetrexed] (partner 0.2 µM)
# Procedure, shortened: as §1
# Afatinib + Vorinostat = compound: CN(C)C/C=C/C(=O)Nc1cc2c(Nc3ccc(F)c(Cl)c3)ncnc2cc1O[C@H]1CCOC1 [Afatinib] + O=C(CCCCCCC(=O)Nc1ccccc1)NO [Vorinostat] (partner 1 µM)
# Procedure, shortened: as §1
# Afatinib + Olaparib = compound: CN(C)C/C=C/C(=O)Nc1cc2c(Nc3ccc(F)c(Cl)c3)ncnc2cc1O[C@H]1CCOC1 [Afatinib] + O=C(c1cc(Cc2n[nH]c(=O)c3ccccc23)ccc1F)N1CCN(C(=O)C2CC2)CC1 [Olaparib] (partner 8 µM)
# Procedure, shortened: as §1
Cell Line,relative viability (Afatinib + Linsitinib; first compound 0.005 µM),relative viability (Afatinib + Linsitinib; first compound 0.01581 µM),relative viability (Afatinib + Linsitinib; first compound 0.05 µM),relative viability (Afatinib + Linsitinib; first compound 0.1581 µM),relative viability (Afatinib + Linsitinib; first compound 0.5 µM),relative viability (Afatinib + Pemetrexed; first compound 0.005 µM),relative viability (Afatinib + Pemetrexed; first compound 0.01581 µM),relative viability (Afatinib + Pemetrexed; first compound 0.05 µM),relative viability (Afatinib + Pemetrexed; first compound 0.1581 µM),relative viability (Afatinib + Pemetrexed; first compound 0.5 µM),relative viability (Afatinib + Vorinostat; first compound 0.005 µM),relative viability (Afatinib + Vorinostat; first compound 0.01581 µM),relative viability (Afatinib + Vorinostat; first compound 0.05 µM),relative viability (Afatinib + Vorinostat; first compound 0.1581 µM),relative viability (Afatinib + Vorinostat; first compound 0.5 µM),relative viability (Afatinib + Olaparib; first compound 0.005 µM),relative viability (Afatinib + Olaparib; first compound 0.01581 µM),relative viability (Afatinib + Olaparib; first compound 0.05 µM),relative viability (Afatinib + Olaparib; first compound 0.1581 µM),relative viability (Afatinib + Olaparib; first compound 0.5 µM)
NCI-H650,0.872,0.706,1.03,0.999,0.697,0.922,0.849,0.951,0.854,0.87,0.469,0.395,0.551,0.515,0.316,0.339,0.429,0.441,0.407,0.399
NCI-H661,0.669,0.531,0.516,0.375,0.294,0.956,0.861,0.809,0.616,0.688,0.867,0.738,0.755,0.64,0.63,0.811,0.732,0.638,0.589,0.637
NCI-H838,1.04,0.949,1.07,0.952,1.06,0.246,0.243,0.259,0.243,0.259,0.695,0.74,0.74,0.639,0.801,0.803,0.723,0.819,0.757,0.815
NCI-H1355,0.744,0.828,0.728,0.586,0.662,1.07,1.01,0.946,0.906,0.974,0.597,0.585,0.545,0.553,0.552,0.723,0.768,0.713,0.716,0.67
NCI-H1395,1.43,1.13,1.22,1.19,1.13,0.951,0.811,0.827,0.92,0.752,0.857,0.571,0.674,0.711,0.5,0.471,0.475,0.463,0.483,0.49
NCI-H1437,1.18,1.1,0.941,0.98,0.967,0.32,0.298,0.339,0.324,0.283,0.841,0.831,0.967,0.776,0.908,0.657,0.64,0.642,0.596,0.569
NCI-H1651,1.12,0.983,0.847,0.906,0.815,0.553,0.539,0.57,0.569,0.54,0.628,0.521,0.512,0.575,0.539,0.173,0.186,0.179,0.17,0.21
NCI-H1666,0.724,0.743,0.56,–,0.561,0.85,0.768,0.843,0.704,0.69,1,1.03,1.03,0.811,0.712,0.78,0.792,0.75,0.712,0.681
NCI-H1734,0.9,0.75,0.931,0.865,0.771,0.411,0.374,0.406,0.375,0.453,0.795,0.826,0.874,0.779,0.831,0.666,0.569,0.621,0.58,0.551
NCI-H1755,0.979,0.992,0.997,0.938,0.995,0.405,0.611,0.463,0.402,0.421,0.9,0.935,0.789,0.79,0.727,0.906,0.857,0.921,0.864,0.813
NCI-H1793,0.566,0.431,0.61,0.461,0.514,0.814,0.582,0.584,0.582,0.503,0.733,0.424,0.411,0.401,0.38,0.659,0.633,0.461,0.398,0.582
NCI-H1915,1.13,1.08,1.11,1.07,1.07,0.532,0.491,0.468,0.52,0.427,0.525,0.518,0.497,0.476,0.464,0.255,–,0.244,0.27,0.259
NCI-H1944,1.04,0.904,0.776,0.566,0.571,0.605,0.583,0.511,0.378,0.453,0.514,0.562,0.42,0.413,0.406,0.384,0.364,0.39,0.326,0.332
NCI-H1975,0.901,1.1,0.794,0.261,0.217,0.287,0.28,0.295,0.276,0.209,0.711,0.667,0.59,0.357,0.26,0.917,0.771,0.778,0.59,0.321
NCI-H1993,0.714,0.736,0.803,0.822,0.696,0.569,0.526,0.638,0.551,0.506,0.662,0.437,0.731,0.466,0.541,0.828,0.883,0.641,0.557,0.704
NCI-H2009,1.23,1.14,1.23,1.13,1.22,1.04,1.01,0.977,1.03,1.01,0.772,0.775,0.812,0.701,0.755,0.578,0.699,0.743,0.648,0.665

Cell Line,relative viability (Afatinib + Linsitinib; first compound 0.005 µM),relative viability (Afatinib + Linsitinib; first compound 0.01581 µM),relative viability (Afatinib + Linsitinib; first compound 0.05 µM),relative viability (Afatinib + Linsitinib; first compound 0.1581 µM),relative viability (Afatinib + Linsitinib; first compound 0.5 µM),relative viability (Afatinib + Pemetrexed; first compound 0.005 µM),relative viability (Afatinib + Pemetrexed; first compound 0.01581 µM),relative viability (Afatinib + Pemetrexed; first compound 0.05 µM),relative viability (Afatinib + Pemetrexed; first compound 0.1581 µM),relative viability (Afatinib + Pemetrexed; first compound 0.5 µM),relative viability (Afatinib + Vorinostat; first compound 0.005 µM),relative viability (Afatinib + Vorinostat; first compound 0.01581 µM),relative viability (Afatinib + Vorinostat; first compound 0.05 µM),relative viability (Afatinib + Vorinostat; first compound 0.1581 µM),relative viability (Afatinib + Vorinostat; first compound 0.5 µM),relative viability (Afatinib + Olaparib; first compound 0.005 µM),relative viability (Afatinib + Olaparib; first compound 0.01581 µM),relative viability (Afatinib + Olaparib; first compound 0.05 µM),relative viability (Afatinib + Olaparib; first compound 0.1581 µM),relative viability (Afatinib + Olaparib; first compound 0.5 µM)
NCI-H2023,0.577,0.494,0.453,0.355,0.414,0.222,0.209,0.231,0.189,0.208,0.445,0.566,0.592,0.556,0.549,0.514,0.444,0.489,0.464,0.481
NCI-H2085,0.726,0.773,0.769,0.417,0.675,0.821,0.671,0.842,0.681,0.699,0.746,0.684,0.66,0.623,0.682,0.751,0.691,0.659,0.603,0.648
NCI-H2087,0.985,0.916,1.01,0.918,0.986,0.763,0.668,0.664,0.671,0.652,0.658,0.625,0.968,0.91,0.592,0.511,0.669,0.609,0.525,0.593
NCI-H2126,0.724,0.701,0.583,0.465,0.424,0.715,0.66,0.623,0.469,0.45,0.732,0.683,0.617,0.43,0.481,0.934,0.881,0.85,0.645,0.665
NCI-H2228,0.604,0.778,0.631,–,0.502,0.283,0.306,0.334,0.298,0.322,0.928,0.444,0.566,0.698,0.462,0.935,0.518,0.704,0.506,0.579
NCI-H2347,1.04,0.933,1.03,1.08,1.03,0.401,0.414,0.426,0.45,0.392,0.628,0.73,0.587,0.524,0.565,0.571,0.699,0.595,0.566,0.578
NCI-H2405,0.808,0.875,0.963,0.836,0.906,1.09,1.14,1.12,1.01,0.953,1.2,0.848,0.976,0.953,0.938,0.885,0.934,0.864,0.874,0.852
NCI-H3122,1.02,1.02,0.963,0.822,1.08,0.206,0.196,0.199,0.187,0.187,1.1,1,1.06,0.956,0.944,0.619,0.628,0.57,0.632,0.68
PC-3 [JPC-3],0.593,0.451,0.439,0.461,0.392,0.514,0.384,0.462,0.414,0.431,0.531,0.339,0.287,0.326,0.328,0.608,0.453,0.472,0.456,0.476
PC-14,0.271,0.255,0.176,0.237,0.23,0.155,0.155,0.164,0.165,0.149,0.112,0.0624,0.108,0.0886,0.124,0.193,0.19,0.139,0.12,0.134
RERF-LC-KJ,0.888,0.9,0.76,0.656,0.716,0.466,0.442,0.484,0.481,0.453,0.713,0.636,0.544,0.574,0.519,0.851,0.86,0.906,0.865,0.828
SK-LU-1,1.39,1.11,1.2,1.02,1.01,0.967,0.816,1.03,0.948,0.969,0.727,0.806,0.767,0.771,0.738,0.49,0.447,0.414,0.492,0.452
SK-MES-1,1,0.975,0.543,0.406,0.429,0.386,0.707,0.472,0.438,0.434,0.542,0.816,0.509,0.54,0.506,0.682,0.489,0.325,0.334,0.404
SW 1573,0.773,0.865,0.649,0.731,0.703,0.747,0.852,0.86,0.769,0.861,0.696,0.682,1.01,0.692,0.777,0.624,0.485,0.486,0.421,0.408
UMC-11,0.996,0.973,1.04,0.97,1.04,0.892,0.814,0.846,0.738,0.722,0.378,0.361,0.347,0.416,0.364,0.386,0.402,0.405,0.368,0.394
